The values that follow come from ChEMBL document CHEMBL1149093, “Design and synthesis of new templates derived from pyrrolopyrimidine as selective multidrug-resistance-associated protein inhibitors in multidrug resistance” (J Med Chem, 2004).

Structures are written as SMILES.

The nature of data set [1]: in vivo. To be noted: mouse, plasma, iv, 20 mg/kg.
Data set [2] is described as follows: in vivo. To be noted: mouse, iv, 20 mg/kg.
The nature of data set [3]: in vivo. To be noted: mouse, plasma, ip, 50 mg/kg.
A short description of data set [4]: in vivo. The settings on record: mouse, iv, 20 mg/kg. This is another data set of the same source.
A short description of data set [5]: in vivo. To be noted: mouse, ip, 50 mg/kg.
Data set [6] in a line: in vivo. To be noted: mouse, ip, 50 mg/kg. This is another data set of the same source.

Turning to `O=[N+]([O-])c1cc([N+](=O)[O-])c2[nH]c3c(N4CCN(CCc5ccc(F)c(F)c5)CC4)nc(CN4CCOCC4)nc3c2c1`, the Cmax is 9 µM in “in vivo [1]” and 26.4 µM in “in vivo [3]”. For the same compound, the half-life in the data set “in vivo [2]” is 2.4 h; in “in vivo [5]”, 6.86 h. For the same compound, the AUC was determined as 5100 ng·h/mL in the data set “in vivo [4]” and 30600 ng·h/mL in the data set “in vivo [6]”.
Regarding `Cn1c2ccnc(N3CCOCC3)c2c2ncnc(N3CCN(CCc4ccc(F)c(F)c4)CC3)c21`, the peak level in “in vivo [1]” (Cmax) was 11.9 µM. In the data set “in vivo [2]”, this compound had a half-life of 1.97 h. In the data set “in vivo [4]”, this compound gave an AUC of 6320 ng·h/mL.
For `Cn1c2cccc(C(N)=O)c2c2nc(CN3CCOCC3)nc(N3CCN(CCc4ccc(F)c(F)c4)CC3)c21`, the Cmax in the data set “in vivo [1]” came to 15 µM. The compound further showed a half-life in the data set “in vivo [2]” of 3.03 h. In addition, the AUC in the data set “in vivo [4]” turned out to be 14000 ng·h/mL.

For orientation: Cmax means the peak of the concentration-time curve. Usually half-life stands for the time needed for the level to fall by half in the phase considered. The low end stands for rapid decline, the high end for slow decline. As usually defined, the AUC is the area under the concentration-time curve, a measure of exposure. A lower AUC goes with less exposure.
